Data as given in patent US20050100561A1, “Use of topical compositions for the control of microbial diseases of the nail” (priority 2002, published 2005).
Marks after values point to notes of the source that are not given here.

System: onychomycosis
Assay: Treatment of onychomycosis with topical copper silicate (cream or solution), patient trial
Format: in vivo, human
Experimental: Subjects, not already receiving anti-fungal treatment, were assessed for clinical diagnosis of onychomycosis and photographs and nail clippings were taken. Those testing positive for onychomycosis were admitted to the trial.
The anti-fungal composition (cream or solution) was applied to the infected nail twice daily for the duration of the treatment.
Estimates of the nail area involved were made during clinical visits and photographs were taken. Nail clippings were collected for KOH and dermatophyte culture. […] Results
The results presented hereunder are interim results of a 12 month study. Patients entered the trial and commenced their treatment at different dates. […] Patients were assessed at 0 (commencement). 6 weeks and 12 weeks.

[1] = Post-treatment Week 13 (N = 18)
[2] = Post-treatment Week 13 (N = 18), = 39 weeks
[3] = Post-treatment Week 26 (N = 18)
[4] = Treatment time Week 12 (N = 18)

## copper silicate
13 weeks post-treatment
  Patients culture negative: 55%
26 weeks post treatment
  Patients "effectively treated": 22%
[1]
  % Nail infected 0% (clear), number of patients: 3
  % Nail infected 1-10%, number of patients: 1
  % Nail infected 11-50%, number of patients: 6
  % Nail infected >50%, number of patients: 8
  Dermatophyte culture Positive, number of patients: 8
  Infecting organism T. mentagrophytes v. interdigitale, number of patients: 1
  Infecting organism T. rubrum, number of patients: 7
  KOH Negative, number of patients: 4
  KOH Positive, number of patients: 14
  New growth Clear, number of patients: 15
  New growth Not clear, number of patients: 3
  Outcome Complete cure, number of patients: 3
  Outcome Effective treatment, number of patients: 3
  Outcome Mycological cure, number of patients: 3
[2]
  Dermatophyte culture Negative, number of patients: 10
  Outcome Mycological change (culture positive to culture negative), number of patients: 7
Post-treatment Week 13 (N = 18), includes 1 patient that is KOH negative
  Outcome Not effective, number of patients: 8^@
[3]
  % Nail infected 0% (clear), number of patients: 3
  % Nail infected 1-10%, number of patients: 2
  % Nail infected 11-50%, number of patients: 6
  % Nail infected >50%, number of patients: 7
  Dermatophyte culture Positive, number of patients: 9
  Infecting organism T. mentagrophytes v. interdigitale, number of patients: 1
  Infecting organism T. rubrum, number of patients: 8
  KOH Negative, number of patients: 6
  KOH Positive, number of patients: 12
  New growth Clear, number of patients: 15
  New growth Not clear, number of patients: 3
  Outcome Effective treatment, number of patients: 4
  Outcome Mycological change (culture positive to culture negative), number of patients: 5
  Outcome Mycological cure, number of patients: 4
Post-treatment Week 26 (N = 18), = 52 weeks
  Outcome Complete cure, number of patients: 3
Post-treatment Week 26 (N = 18), = 52 weeks, end of the trial
  Dermatophyte culture Negative, number of patients: 9
Post-treatment Week 26 (N = 18), includes 1 patient that is KOH negative
  Outcome Not effective, number of patients: 9^@
Treatment time Week 6 (N = 18)
  % Nail infected 0% (clear), number of patients: 0
  % Nail infected 1-10%, number of patients: 2
  % Nail infected 11-50%, number of patients: 5
  % Nail infected >50%, number of patients: 11
  Dermatophyte culture Negative, number of patients: 10
  Dermatophyte culture Positive, number of patients: 8
  Infecting organism T. mentagrophytes v. interdigitale, number of patients: 1
  Infecting organism T. rubrum, number of patients: 7
  KOH Negative, number of patients: 4
  KOH Positive, number of patients: 14
  New growth Clear, number of patients: 11
  New growth Not clear, number of patients: 7
  Outcome Complete cure, number of patients: 0
  Outcome Effective treatment, number of patients: 2
  Outcome Mycological change (culture positive to culture negative), number of patients: 6
  Outcome Mycological cure, number of patients: 4
Treatment time Week 6 (N = 18), includes 2 patients that are KOH negative
  Outcome Not effective, number of patients: 8^#
[4]
  % Nail infected 0% (clear), number of patients: 3
  % Nail infected 1-10%, number of patients: 1
  % Nail infected 11-50%, number of patients: 4
  % Nail infected >50%, number of patients: 10
  Dermatophyte culture Negative, number of patients: 11
  Dermatophyte culture Positive, number of patients: 7
  Infecting organism T. mentagrophytes v. interdigitale, number of patients: 1
  Infecting organism T. rubrum, number of patients: 6
  KOH Negative, number of patients: 4
  KOH Positive, number of patients: 14
  New growth Clear, number of patients: 16
  New growth Not clear, number of patients: 2
  Outcome Complete cure, number of patients: 2
  Outcome Effective treatment, number of patients: 3
  Outcome Mycological change (culture positive to culture negative), number of patients: 8
  Outcome Mycological cure, number of patients: 3
Treatment time Week 12 (N = 18), includes 1 patient that is KOH negative
  Outcome Not effective, number of patients: 7^@
Treatment time Week 26 (N = 18)
  % Nail infected 0% (clear), number of patients: 3
